Patent US12606556B2, “TYK-2 inhibitor” (BEIGENE, LTD., priority 2020, dated 2026)

Tests used:
[1] = biological target: T1, JAK1-JH2 protein (aa 561-860, in-house) (Homo sapiens, UniProt P23458); assay: JAK1-JH2 biochemical assay (HTRF, blocking of JAK1-JH2 protein with its probe); format: binding; conditions: 1.17 nM recombinant JAK1-JH2, Probe 2
T1 construct: JAK1-JH2 protein (aa 561-860, in-house); made in house
Procedure, shortened: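 HTRF probe-displacement assay using recombinant human JAK1 pseudokinase domain (aa 561-860, 1.17 nM in pre-incubation step), pre-incubated 0.5 h at room temperature with 10-dose 5-fold compound series. Buffer: 20 mM HEPES pH 7.5, 10 mM MgCl2, 0.005% BSA, 2 mM DTT, 0.015% Brij-35. IC50 by four-parameter logistic fit of 615/665 nm ratio.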

[2] = test system: JAK2, TYK2/p-STAT4 (Tyr693) activated by IL-12 in NK-92 cell line; assay: IL-12-JAK2, TYK2/p-STAT4 (Tyr693) inhibition cellular assay; format: cell-based; conditions: for IC50: NK92, 0.5 h, NK-92 cells, IL-12 40 ng/ml, 30 min, read-out: Cellular assay pSTAT4/IL-12 IC50; for Cellular assay Selectivity fold (TYK2/JAK1): pSTAT4/IL-12 vs pSTAT3/IL-6 cellular IC50
Procedure, shortened: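 NK-92 cells were starved overnight without IL-2 and seeded at 5×10^4 per well in 1640 medium with 0.1% BSA. Lysate p-STAT4 (Tyr693) was measured by AlphaLISA SureFire, and IC50 was fitted with a 4-parameter logistic model.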

[3] = test system: JAK1/p-STAT3(Tyr705) activated by IL-6 in TF-1 cell line; assay: IL-6-JAK1/p-STAT3(Tyr705) inhibition cellular assay; format: cell-based; conditions: Homo sapiens, 0.5 h; TF-1 cells, IL-6 50 ng/ml, 30 min; read-out: Cellular assay pSTAT3/IL-6 IC50
[4] = biological target: T2, TYK2-JH2 (aa 575-869, in-house) protein (Homo sapiens, UniProt P29597); assay: TYK2-JH2 biochemical assay (HTRF, blocking of TYK2-JH2 protein with its probe); format: binding; conditions: for IC50: HTRF, 0.2 nM recombinant TYK2-JH2, Probe 1; for Biochemical assay Selectivity fold (TYK2/JAK1): TYK2-JH2 vs JAK1-JH2 biochemical IC50
T2 construct: TYK2-JH2 (aa 575-869, in-house) protein; made in house
T2 sequence (P29597 575-869): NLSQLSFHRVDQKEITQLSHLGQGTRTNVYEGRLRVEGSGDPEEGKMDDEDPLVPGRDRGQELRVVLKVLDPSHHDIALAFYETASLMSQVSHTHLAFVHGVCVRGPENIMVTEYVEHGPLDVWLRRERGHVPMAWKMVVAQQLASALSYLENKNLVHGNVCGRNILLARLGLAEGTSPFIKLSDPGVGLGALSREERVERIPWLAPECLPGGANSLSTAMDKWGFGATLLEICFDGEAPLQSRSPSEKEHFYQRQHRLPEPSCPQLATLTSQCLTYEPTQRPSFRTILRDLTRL
Procedure, shortened: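 Recombinant TYK2-JH2 (0.2 nM) pre-incubated with compounds (10 doses, 5-fold dilutions) 0.5 h at RT in HEPES pH 7.5 buffer with MgCl2, BSA, DTT, Brij-35; biotinylated probe (10 nM working solution, KD=10 nM) plus anti-6His Tb cryptate/streptavidin-XL665 added, 1 h RT. HTRF ratio read; IC50 from four-parameter logistic fit.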

T1 sequence (P23458 561-860): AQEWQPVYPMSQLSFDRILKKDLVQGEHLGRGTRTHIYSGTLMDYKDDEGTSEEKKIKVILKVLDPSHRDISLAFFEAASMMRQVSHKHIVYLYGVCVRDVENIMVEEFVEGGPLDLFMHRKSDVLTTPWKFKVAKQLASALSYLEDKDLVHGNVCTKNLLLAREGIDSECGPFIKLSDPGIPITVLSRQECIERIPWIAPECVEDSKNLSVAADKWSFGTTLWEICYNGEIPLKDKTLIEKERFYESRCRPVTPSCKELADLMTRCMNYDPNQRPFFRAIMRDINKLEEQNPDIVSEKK

IC50 [1] | IC50 [2] | IC50 [3] | IC50 [4] | Biochemical assay Selectivity fold (TYK2/JAK1) [4] | Structure (SMILES) | Cellular assay Selectivity fold (TYK2/JAK1) [2]
1.3 nM | 8.14 nM | > 10000 nM | 0.045 nM | 29 fold | CNC(=O)c1nnc(NC(=O)C2CC2)cc1Nc1nc2ccc(N3CC(COC)C3)cn2n1 [Example E15, 6-(cyclopropanecar-boxamido)-4-((6-(3-(methoxymethyl)azetidin-1-yl)-[1,2,4]triazolo[1,5-a]pyridin-2-yl)amino)-N-methylpyridazine-3-carboxamide] | >1228 fold
0.93 nM | 15.6 nM | 2910 nM | 0.046 nM | 20 fold | CNC(=O)c1nnc(NC(=O)C2CC2)cc1Nc1nc2ccc(N3CC(OCCOC)C3)cn2n1 [Example E16, 6-(cyclopropanecar-boxamido)-4-((6-(3-(2-methoxyethoxy)azetidin-1-yl)-[1,2,4]triazolo[1,5-a]pyridin-2-yl)amino)-N-methylpyridazine-3-carboxamide] | 186 fold
1.5 nM | 645 nM | > 10000 nM | 0.12 nM | 13 fold | CNC(=O)c1nnc(NC(=O)C2CC2)cc1Nc1nc2ccc(N3CC(S(C)(=O)=O)C3)cn2n1 [Example E18, 6-(cyclopropanecar-boxamido)-N-methyl-4-((6-(3-(methyl-sulfonyl)azetidin-1-yl)-[1,2,4]triazolo [1,5-a]pyridin-2-yl)amino)pyridazine-3-carboxamide] | >15.5 fold
1.03 nM | 37.2 nM | 5120 nM | 0.093 nM | 11 fold | CCN(CC)C1CN(c2ccc3nc(Nc4cc(NC(=O)C5CC5)nnc4C(=O)NC)nn3c2)C1 [Example E22, 6-(cyclopropanecar-boxamido)-4-((6-(3-(diethylamino)azetidin-1-yl)-[1,2,4]triazolo [1,5-a]pyridin-2-yl)amino)-N-methylpyridazine-3-carboxamide] | 138 fold
2.6 nM | 95 nM | > 10000 nM | 0.12 nM | 22 fold | CNC(=O)c1nnc(NC(=O)C2CC2)cc1Nc1nc2ccc(N3CC(N(C)S(C)(=O)=O)C3)cn2n1 [Example F1, 6-(cyclopropanecarboxamido)-N-methyl-4-((6-(3-(N-methylmethylsulfonamido)azetidin-1-yl)-[1,2,4]triazolo[1,5-a]pyridin-2-yl)amino)pyridazine-3-carboxamide] | >105 fold
1.8 nM | 9.05 nM | > 10000 nM | 0.076 nM | 24 fold | CNC(=O)c1nnc(NC(=O)C2CC2)cc1Nc1nc2ccc(N3CC(C(C)O)C3)cn2n1 (stereo not drawn) [Example G1, 6-(cyclopropanecarboxamido)-4-((6-(3-(1-hydroxyethyl)azetidin-1-yl)-[1,2,4]triazolo[1,5-a]pyridin-2-yl)amino)-N-methylpyridazine-3-carboxamide] | >1104 fold
1.2 nM | 34.2 nM | > 10000 nM | 0.057 nM | 21 fold | CNC(=O)c1nnc(NC(=O)C2CC2)cc1Nc1nc2ccc(N3CC(O)C3)cn2n1 [Example H1, 6-(cyclopropanecarboxamido)-4-((6-(3-hydroxyazetidin-1-yl)-[1,2,4]triazolo[1,5-a]pyridin-2-yl)amino)-N-methylpyridazine-3-carboxamide] | >292 fold
1.8 nM | 15.6 nM | > 10000 nM | 0.086 nM | 21 fold | CNC(=O)c1nnc(NC(=O)C2CC2)cc1Nc1nc2ccc(N3CC(F)(CO)C3)cn2n1 [Example J1, 6-(cyclopropanecarboxamido)-4-((6-(3-fluoro-3-(hydroxymethyl)azetidin-1-yl)-[1,2,4]triazolo[1,5-a]pyridin-2-yl)amino)-N-methylpyridazine-3-carboxamide] | >641 fold
1.3 nM | 14.9 nM | 4360 nM | 0.053 nM | 25 fold | CNC(=O)c1nnc(NC(=O)C2CC2)cc1Nc1nc2ccc(N3CCC3CO)cn2n1 (stereo not drawn) [Example J2, 6-(cyclopro-panecar-boxamido)-4-((6-(2-(hydroxy-methyl)azetidin-1-yl)-[1,2,4]triazolo[1,5-a]pyridin-2-yl)amino)-N-methyl-pyridazine-3-carboxamide] | 292 fold

Further lines, the compound ahead of its results:

Structure (SMILES) | IC50 [1] | IC50 [2] | IC50 [3] | IC50 [4] | Biochemical assay Selectivity fold (TYK2/JAK1) [4] | Cellular assay Selectivity fold (TYK2/JAK1) [2]
CNC(=O)c1nnc(NC(=O)C2CC2)cc1Nc1nc2ccc(N3CC(F)(COC)C3)cn2n1 [Example E17, 6-(cyclopropanecar-boxamido)-4-((6-(3-fluoro-3-(methoxy-methyl)azetidin-1-yl)-[1,2,4]triazolo[1,5-a]pyridin-2-yl)amino)-N-methylpyridazine-3-carboxamide] | 2.5 nM | 8.28 nM | 2630 nM | 0.071 nM | 35 fold | 317 fold
CNC(=O)c1nnc(NC(=O)C2CC2)cc1Nc1nc2ccc(N3CC(Oc4ccc(F)cc4F)C3)cn2n1 [Example E19, 6-(cyclopropanecar-boxamido)-4-((6-(3-(2,4-difluorophenoxy)azetidin-1-yl)-[1,2,4]triazolo[1,5-a]pyridin-2-yl)amino)-N-methylpyridazine-3-carboxamide] | 8.4 nM | 105 nM | > 10000 nM | 0.14 nM | 60 fold | >95 fold
CNC(=O)c1nnc(NC(=O)C2CC2)cc1Nc1nc2ccc(N3CCC3COC)cn2n1 (stereo not drawn) [Example E20, 6-(cyclopropanecar-boxamido)-4-((6-(2-(methoxymethyl)azetidin-1-yl)-[1,2,4]triazolo[1,5-a]pyridin-2-yl)amino)-N-methylpyridazine-3-carboxamide] | 3.2 nM | 16.4 nM | > 10000 nM | 0.089 nM | 36 fold | >609 fold
CNC(=O)c1nnc(NC(=O)C2CC2)cc1Nc1nc2ccc(N3CCC(N4CC(N(C)C)C4)CC3)cn2n1 [Example E21, 6-(cyclopropanecar-boxamido)-4-((6-(4-(3-(dimethylamino)azetidin-1-yl)piperidin-1-yl)-[1,2,4]triazolo [1,5-a]pyridin-2-yl)amino)-N-methylpyridazine-3-carboxamide] | 2.78 nM | 42 nM | > 10000 nM | 0.077 nM | 36 fold | >238 fold
CNC(=O)c1nnc(NC(=O)C2CC2)cc1Nc1nc2ccc(N3C(=O)CC3c3ccccc3)cn2n1 (stereo not drawn) [Example K1, 6-(cyclopropanecarboxamido)-N-methyl-4-((6-(2-oxo-4-phenylazetidin-1-yl)-[1,2,4]triazolo[1,5-a]pyridin-2-yl)amino)pyridazine-3-carboxamide] | 3.8 nM | 219 nM | > 10000 nM | 0.5 nM | 8 fold | >46 fold
CNC(=O)c1nnc(NC(=O)C2CC2)cc1Nc1nc2ccc(C3CN(S(C)(=O)=O)C3)cn2n1 [Example L1, 6-(cyclopropanecarboxamido)-N-methyl-4-((6-(1-(methylsulfonyl)azetidin-3-yl)-[1,2,4]triazolo[1,5-a]pyridin-2-yl)amino)pyridazine-3-carboxamide] | 3.7 nM | 50.9 nM | > 10000 nM | 0.093 nM | 40 fold | >196 fold
CNC(=O)c1nnc(NC(=O)C2CC2)cc1Nc1nc2ccc(C3CN(C(C)=O)C3)cn2n1 [Example L2, 4-((6-(1-acetylazetidin-3-yl)-[1,2,4]triazolo[1,5-a]pyridin-2-yl)amino)-6-(cyclopropanecarboxamido)-N-methylpyridazine-3-carboxamide] | 2.6 nM | 276 nM | > 10000 nM | 0.081 nM | 32 fold | >36 fold
